US8710058B2, “Polymorphic forms of 3-(1-{3-[5-(1-methyl-piperidin-4-ylmethoxy)-pyrimidin-2-yl]-benzyl}-6-oxo-1,6-dihydro-pyridazin-3-yl)-benzonitrile hydrochloride salt and processes of manufacturing thereof” (MERCK PATENT GmbH, priority 2009, dated 2014)
“Also recorded” adds a separate entry of the source. Where two headings read alike, the source gives them in different places.

Experiments:
[1] = Water Vapor Sorption isotherm (25° C., SMS DVS); type: physicochemical; details: for Hygroscopicity classification acc. to Ph. Eur. criteria: up to 98% RH
Excerpt: The crystalline modifications of the present invention can be characterized according to standard methods which can be found e.g. in Rolf Hilfiker, ‘Polymorphism in the Pharmaceutical Industry’, Wiley-VCH, Weinheim 2006, and references therein, e.g. X-Ray diffraction (XRD; chapter 6), IR and Raman spectroscopy (chapter 5), Differential Scanning calorimetry (DSC) and Thermogravimetric Analysis (TGA) (chapter 3), Water Vapour Sorption Studies (chapter 9), or which can be found e.g. in H. G. Brittain (editor), Polymorphism in Pharmaceutical Solids, Vol. 95, Marcel Dekker Inc., New York 1999 (chapter 6: all there mentioned techniques).
FIG. 6 depicts the Water Vapour Sorption Isotherm (25° C.) (SMS DVS 1) of crystalline modification A1 of 3-(1-{3-[5-(1-methyl-piperidin-4-ylmethoxy)-pyrimidin-2-yl]-benzyl}-6-oxo-1,6-dihydro-pyridazin-3-yl)-benzonitrile hydrochloride anhydrate.
FIG. 12 depicts the Water Vapour Sorption Isotherm (25° C.) (SMS DVS Intrinsic) of crystalline modification H1 of 3-(1-{3-[5-(1-methyl-piperidin-4-ylmethoxy)-pyrimidin-2-yl]-benzyl}-6-oxo-1,6-dihydro-pyridazin-3-yl)-benzonitrile hydrochloride hydrate.
FIG. 18 depicts the Water Vapour Sorption Isotherm (25° C.) (SMS DVS Advantage) of crystalline modification NF3 of 3-(1-{3-[5-(1-methyl-piperidin-4-ylmethoxy)-pyrimidin-2-yl]-benzyl}-6-oxo-1,6-dihydro-pyridazin-3-yl)-benzonitrile hydrochloride hydrate.
FIG. 25 depicts the Water Vapour Sorption Isotherm (25° C.) (SMS DVS Intrinsic) of crystalline modification H2 of 3-(1-{3-[5-(1-methyl-piperidin-4-ylmethoxy)-pyrimidin-2-yl]-benzyl}-6-oxo-1,6-dihydro-pyridazin-3-yl)-benzonitrile hydrochloride monohydrate.
FIG. 33 depicts the Water Vapour Sorption Isotherm (25° C.) (SMS DVS Intrinsic) of crystalline modification NF6 of 3-(1-{3-[5-(1-methyl-piperidin-4-ylmethoxy)-pyrimidin-2-yl]-benzyl}-6-oxo-1,6-dihydro-pyridazin-3-yl)-benzonitrile hydrochloride anhydrate.
FIG. 38 depicts the Water Vapour Sorption Isotherm (25° C.) (SMS DVS Intrinsic) of crystalline modification NF2 of 3-(1-{3-[5-(1-methyl-piperidin-4-ylmethoxy)-pyrimidin-2-yl]-benzyl}-6-oxo-1,6-dihydro-pyridazin-3-yl)-benzonitrile hydrochloride hydrate.

[2] = Kinetic solubility (after 60 minutes) in 0.1 N HCl; details: 0.1 N HCl (pH 1.0); for Kinetic Solubility (after 60 minutes): room temperature (approx. 20-25° C.)
[3] = Solubility in Simulated Gastric Fluid (acc. to USP); details: 20 °C, thermodynamic from solid
[4] = Thermodynamic solubility in 0.1 N HCl at 37° C.; details: 0.1 N HCl (pH 1.0); for Thermodynamic Solubility: 37° C.
[5] = Competitive binary slurry conversion experiments (thermodynamic stability of hydrate forms); details: different solvents at 25° C. and 50° C.
[6] = pH 1

For `CN1CCC(COc2cnc(-c3cccc(Cn4nc(-c5cccc(C#N)c5)ccc4=O)c3)nc2)CC1.Cl` [crystalline modification A1, 3-(1-{3-[5-(1-methyl-piperidin-4-ylmethoxy)-pyrimidin-2-yl]-benzyl}-6-oxo-1,6-dihydro-pyridazin-3-yl)-benzonitrile hydrochloride anhydrate], the “Hygroscopic behavior” value ([1]; at 98% RH) was “strongly hygroscopic”, the Water uptake level ([1]; at 98% relative humidity) was > 15 wt % and the “Water uptake upon adsorption” value ([1]; range 0-90% relative humidity) was “very small water uptake levels”.
In the case of `CN1CCC(COc2cnc(-c3cccc(Cn4nc(-c5cccc(C#N)c5)ccc4=O)c3)nc2)CC1.Cl.O` [crystalline modification H2, 3-(1-{3-[5-(1-methyl-piperidin-4-ylmethoxy)-pyrimidin-2-yl]-benzyl}-6-oxo-1,6-dihydro-pyridazin-3-yl)-benzonitrile hydrochloride monohydrate], the “Kinetic Solubility (after 60 minutes)” value ([2]; hydrochloride monohydrate) is reported as “approx. 0.3 μg/mL”, the “Behaviour of hydrate water under dry RH conditions” value ([1]; hydrochloride monohydrate) is reported as “no loss of hydrate water” and the “Hygroscopicity classification acc. to Ph. Eur. criteria” value ([1]; hydrochloride monohydrate) is reported as “non-hygroscopic”. The “Water uptake” value ([1]; up to 98% relative humidity (RH range 0-98%), hydrochloride monohydrate) was “small water uptake levels; also recorded: very small water uptake levels”, the solubility [3] was ~20 µg/mL and the “Thermodynamic Solubility” value ([4]; hydrochloride monohydrate) was “approx. 28 μg/mL”. The “Thermodynamic stability compared to other hydrate forms H1 and NF3” value [5] was “thermodynamically stable hydrate form”.
With `CN1CCC(COc2cnc(-c3cccc(Cn4nc(-c5cccc(C#N)c5)ccc4=O)c3)nc2)CC1.Cl.O` [crystalline modification H1, 3-(1-{3-[5-(1-methyl-piperidin-4-ylmethoxy)-pyrimidin-2-yl]-benzyl}-6-oxo-1,6-dihydro-pyridazin-3-yl)-benzonitrile hydrochloride hydrate] the “Kinetic Solubility (after 60 minutes)” value ([2]; hydrochloride hydrate) was “approx. 3 μg/mL”, the “Solubility compared to crystalline modification H2” value ([2]; kinetic solubility) was “significantly increased solubility” and the Water uptake level ([1]; at 80% RH) was > 15 wt %. For the same molecule, the “Hygroscopic behaviour” value ([1]; relative humidity levels >70%) was “strongly hygroscopic”.
For `CN1CCC(COc2cnc(-c3cccc(Cn4nc(-c5cccc(C#N)c5)ccc4=O)c3)nc2)CC1.Cl.O` [crystalline modification NF2, 3-(1-{3-[5-(1-methyl-piperidin-4-ylmethoxy)-pyrimidin-2-yl]-benzyl}-6-oxo-1,6-dihydro-pyridazin-3-yl)-benzonitrile hydrochloride hydrate], the “Weight loss in water vapor sorption” value ([1]; initial 40% RH sorption stage) was ~10 wt %.
With `CN1CCC(COc2cnc(-c3cccc(Cn4nc(-c5cccc(C#N)c5)ccc4=O)c3)nc2)CC1.Cl.O` [crystalline modification NF3, 3-(1-{3-[5-(1-methyl-piperidin-4-ylmethoxy)-pyrimidin-2-yl]-benzyl}-6-oxo-1,6-dihydro-pyridazin-3-yl)-benzonitrile hydrochloride hydrate] the Water uptake level ([1]; at 98% relative humidity) was “approx. 9 wt %”, the “Behaviour of hydrate water under dry RH conditions” value ([1]; hydrochloride hydrate) was “dehydration of hydrate water occurs” and the “Hygroscopicity classification acc. to Ph. Eur. criteria” value ([1]; hydrochloride hydrate) was “slightly-hygroscopic”. For the same molecule, the “Thermodynamic Solubility” value ([4]; hydrochloride hydrate) was “approx. 70 μg/mL” and the “Solubility compared to crystalline modification H2” value ([4]; thermodynamic solubility) was “significantly increased solubility”.
With `CN1CCC(COc2cnc(-c3cccc(Cn4nc(-c5cccc(C#N)c5)ccc4=O)c3)nc2)CC1.Cl` [crystalline modification NF6, 3-(1-{3-[5-(1-methyl-piperidin-4-ylmethoxy)-pyrimidin-2-yl]-benzyl}-6-oxo-1,6-dihydro-pyridazin-3-yl)-benzonitrile hydrochloride anhydrate] the “Thermodynamic Solubility” value [6] was > 200 µg/mL, the Water uptake ([1]; 2nd adsorption cycle, up to 70% RH) was “approx. 8 wt %” and the “Water uptake in initial sorption stage” value ([1]; initial sorption stage at 40% relative humidity) was “pronounced water uptake”.
